Measurements published in doi:10.1101/2025.02.17.638454, “Synergistic RAS-MAPK and AKT Activation in MYC-Driven Tumors via Adjacent PVT1 Rearrangements” (bioRxiv, 2025).

What was measured:
MYC [1] = test: Western blot of MYC in D458; assay type: cell-based, human; conditions: D458, stable knockdown of PVT1ts vs sh.Cntrl; n=3, unpaired t-test
Description: For whole-cell lysate, the cell pellet was resuspended in RIPA buffer (Cell Signaling Technologies, Danvers, MA) supplemented with a protease inhibitor cocktail (Cell Signaling Technologies) and incubated on ice for 20 minutes. The lysate was then centrifuged at 14,000 revolutions/minute for 10 minutes at 4°C, and the supernatant was harvested. Protein concentration was quantified by BCA Protein Assay Kit (Thermo Fisher Scientific) as per kit protocol. Next, 20 μg of whole-cell lysate was electrophoresed on a 4%–20% gradient polyacrylamide gel with SDS (Bio-Rad, Hercules, CA) and electroblotted onto polyvinylidene difluoride membranes (Bio-Rad). Membranes were blocked in Tris-buffered saline with 5% nonfat milk and 0.1% Tween and probed with antibodies. Bound proteins were detected with horseradish-peroxidase–conjugated secondary antibodies (Cell Signaling Technologies) and SuperSignal West Femto (Thermo Fisher Scientific). Antibodies used were anti-c-MYC (Cell Signaling Technology, 5605, anti-Phospho-c-MYC (Ser62) (Cell Signaling Technology, 13748), anti-β ACTIN (Cell Signaling Technology, 8457), anti-Phospho-p44/42 (Erk1/2) (Thr202/Tyr204) (Cell Signaling Technology, 4370), anti-p44/42 (Erk1/2) (Cell Signaling Technology, 4695), anti-Phospho-MEK1/2 (Ser217/221) (Cell Signaling Technology, 9154), anti-MEK1/2 (Cell Signaling Technology, 9122), anti-Phospho-p90RSK (Ser380) (Cell Signaling Technology, 11989), anti-RSK1/RSK2/RSK3 (Cell Signaling Technology, 9355), Anti-Rabbit IgG, HRP-linked Antibody (Cell Signaling Technology, 7074). Anti-FFX (Firefox) monoclonal antibodies were custom produced by Proteintech using FFX residues 13–104 as epitope.
The HNB ORF and eGFP (control) were cloned in an inducible lentivirus expression, TRE-gateway plasmid (pLIX_403, Addgene, #41395). Lentivirus was produced in HEK293T cells using the protocol described above. D458, NCI-H1792 and COLO 320DM cells were transfected with inducible HNB lentivirus and selected with 1 μg/mL concentration of Puromycin. Selected cells were seeded at a concentration of 4 × 10^5 cells per well. After 24 hours of seeding, the cells were treated with 1 μg/mL Doxycycline for 48 hours. The cells were then lysed using RIPA buffer and 1X protease inhibitor cocktail. The protein lysates were collected and quantified using the previously described protocol. 20 μg of whole-cell lysate was electrophoresed on a 4%–20% gradient polyacrylamide gel with SDS (Bio-Rad, Hercules, CA) and electroblotted onto polyvinylidene difluoride membranes (Bio-Rad). […] Bound proteins were detected with horseradish-peroxidase–conjugated secondary antibodies (Cell Signaling Technologies) and SuperSignal West Femto (Thermo Fisher Scientific). […]

D458 cells [2] = test: Proliferation assay D458; assay type: cell-based, human; conditions: D458, stable knockdown of PVT1ts vs sh.Cntrl; two-way ANOVA
D458 cells [3] = test: Orthotopic transplantation of D458 into brains of immunocompromised mice; assay type: in vivo; conditions: D458 sh.RNA1-PVT1ts vs sh.Cntrl in mouse brain; bioluminescence day 9, 14, 21; n=10 each, unpaired t-test
Description: All animal procedures were conducted in accordance with the guidelines established by the Institutional Animal Care and Use Committee of Sanford Burnham Prebys Medical Discovery Institute. Efforts were made to minimize animal suffering and to reduce the number of animals used as per the guidelines of AAALAC International and a Multiple Project Assurance A3053–1 is on file in the OLAW, DHHS.

U2OS cells = test: Proliferation assay U2OS; assay type: cell-based, human; conditions: si.PVT1ts vs si_ctrl, n=3, two-way ANOVA
Excerpt: (§1) Cancer cell lines: COLO-320DM, SK-PN-DW, U2OS, BxPC-3, DU145, SKBR-3 and, NCI-H1792 were obtained from American Type Culture Collection (Rockville, MD) and grown in their required growth medium per the American Type Culture Collection description. D458 and MB002 were obtained from Dr. Michael Taylor’s lab at SickKids hospital, Toronto. Cell line identity for the master stocks were verified by STR genotyping (IDEXX BioResearch)
(§2) Supplementary Figure 14: Analysis of Cell Proliferation in MYC/PVT1 Neutral Cell Lines
(§3) (U2OS, BxPC-3, DU-145) following Transfection with si_PVT1ts or si_ctrl: Each experiment
(§4) was performed in triplicate (n=3), and statistical significance was determined using two-way
(§5) ANOVA (P values indicated)
(§6) .CC-BY 4.0 International licenseavailable under a
(§7) (which was not certified by peer review) is the author/funder, who has granted bioRxiv a license to display the preprint in perpetuity. It is made
(§8) The copyright holder for this preprintthis version posted February 22, 2025.; https://doi.org/10.1101/2025.02.17.638454doi: bioRxiv preprint […]

DU-145 cells = test: Proliferation assay DU-145; assay type: cell-based, human; conditions: DU-145, si.PVT1ts vs si_ctrl; n=3, two-way ANOVA
Excerpt: as §1, §2, §3, §4, §5, §6, §7, §8

MYC [4] = test: Western blot of MYC in U2OS; assay type: cell-based, human; conditions: si.PVT1ts vs si.Ctrl, n=3, unpaired t-test
Description: (§9) For whole-cell lysate, the cell pellet was resuspended in RIPA buffer (Cell Signaling Technologies, Danvers, MA) supplemented with a protease inhibitor cocktail (Cell Signaling Technologies) and incubated on ice for 20 minutes. The lysate was then centrifuged at 14,000 revolutions/minute for 10 minutes at 4°C, and the supernatant was harvested. Protein concentration was quantified by BCA Protein Assay Kit (Thermo Fisher Scientific) as per kit protocol. Next, 20 μg of whole-cell lysate was electrophoresed on a 4%–20% gradient polyacrylamide gel with SDS (Bio-Rad, Hercules, CA) and electroblotted onto polyvinylidene difluoride membranes (Bio-Rad). Membranes were blocked in Tris-buffered saline with 5% nonfat milk and 0.1% Tween and probed with antibodies. Bound proteins were detected with horseradish-peroxidase–conjugated secondary antibodies (Cell Signaling Technologies) and SuperSignal West Femto (Thermo Fisher Scientific). […]
Supplementary Figure 10: FFX protein augments MYC expression (A) Western blot analysis of MYC expression in U2OS cells ectopically transduced with constructs expressing GFP (control) or FFX. […] (C&D) Western blot analysis and quantification of MYC expression in U2OS cells transduced with GFP (control), FFX, FFX(CO), and FFX ATG>TGA. […]

BxPC-3 cells = test: Proliferation assay BxPC-3; assay type: cell-based, human; conditions: BxPC-3, si.PVT1ts vs si_ctrl; n=3, two-way ANOVA
Excerpt: as §1, §2, §3, §4, §5, §6, §7, §8

MYC [5] = test: Western blot of MYC in DU-145; assay type: cell-based, human; conditions: DU-145, si.PVT1ts vs si.Ctrl; n=3, unpaired t-test
Description: as §9

MYC [6] = test: Western blot of MYC in BxPC-3; assay type: cell-based, human; conditions: BxPC-3, si.PVT1ts vs si.Ctrl; n=3, unpaired t-test
Description: as §9

Substance	MYC protein levels (MYC [1])	cellular proliferation (D458 cells [2])	tumor growth after orthotopic injection (D458 cells [3])	cellular proliferation (U2OS cells)	cellular proliferation (DU-145 cells)	MYC protein levels (MYC [4])	cellular proliferation (BxPC-3 cells)	MYC protein levels (MYC [5])	MYC protein levels (MYC [6])
shRNA1-PVT1ts: shRNA against PVT1ts, CCGGGGACAGCTTCAACCCATTACG CTCGAGCGTAATGGGTTGAAGCTGTCCTTTTTG (CCGGGGACAGCTTCAACCCATTACGCTCGAGCGTAATGGGTTGAAGCTGTCCTTTTTG)	increased proliferation (Figure 4D) and MYC protein levels	increased proliferation	grew significantly more aggressively than controls						
shRNA2-PVT1ts: shRNA against PVT1ts, CCGGACCTATGAGCTTTGAATAATT CAAGAGATTATTCAAAGCTCATAGGTTTTTT (CCGGACCTATGAGCTTTGAATAATTCAAGAGATTATTCAAAGCTCATAGGTTTTTT)	increased proliferation (Figure 4D) and MYC protein levels	increased proliferation							
si.PVT1ts: siRNA targeting variants containing exons 7–9, 5’-ACCUAUGAGCUUUGAAUAA-3’ (other strand not given here)				proliferate faster	proliferate faster	increase in MYC protein levels	proliferate faster	increase in MYC protein levels	increase in MYC protein levels
